Results: patent US20180153830A1, “SELECTIVE INHIBITORS OF UNDIFFERENTIATED CELLS” (Yissum Research Development Company of the Hebrew …, priority 2012, published 2018)

Legend:
Format in all cases: cell-based
[1] = tested on: neuroblastoma (Kelly) cells; assay: CellTiter-Glo counter-screen, Kelly; conditions: Homo sapiens, cancer cells
Description: The neuroblastoma cell line Kelly was cultured in RPMI-1640 medium, supplemented with 15% fetal bovine serum (FBS), penicillin (50 U/ml) and streptomycin (50 μg/ml).
(§1) 696 confirmed hits from the confirmation screen were tested for profiling in a panel of 13 different cell types, using the same screening protocol described above (except in the case of embryonic stem cell-derived neural stem cells (NSCs) and mesenchymal stem cells (MSCs), for which the protocol is described below). As discussed below, compounds were tested either in dose-dependent multiple concentration manner or in single concentration manner. CSES2 and CSES2-SO2/3 cell lines and the early endodermal progenitors derived from this cell line (CSES2-SO2/3-differentiated) were screened at 8 concentrations ranging from 50 μM to 23 nM with 1:3 serial dilution steps. BJ-iPS28 cell line and the BJ fibroblasts from which it was derived were screened at 6 concentrations ranging from 50 μM to 200 nM with 1:3 serial dilution steps. Cardiomyocytes were screened in one concentration of 20 μM. HeLa and NTERA-2 cell lines were screened in duplicates of 20 μM. Kelly and Huh-7 were screened in triplicates of 20 μM. Hepatocytes were screened in duplicates of 20 μM in the original 96-well plates in which the cells arrived (40,000 cells per well, in 160 μl medium, the volumes of all reagents involved were adjusted accordingly). MSCs and NSCs were screened in duplicates of 12.5 μM.
(§2) In order to identify highly-selective cytotoxic inhibitors of hPSCs, the 696 cytotoxic inhibitors of hPSCs identified as described in Example 1 were counter-screened as described in the Materials and Methods section against other cell types, representative of all germ layers and developmental stages. Importantly, many of these cell types were differentiated from human ES or iPS cells. The screened cell types included ES-derived neural stem cells (NSCs), ES-derived mesenchymal stem cells (MSCs), ES-derived endodermal progenitor cells, ES-derived hepatocytes, iPS-derived cardiomyocytes, iPS-derived fibroblasts of origin (BJ fibroblasts), and three cancer cell lines: neuroblastoma (Kelly), cervical cancer (HeLa) and hepatocarcinoma (Huh7). The cell types and their relationship to stem cells are depicted schematically in FIG. 14.

[2] = tested on: H9 human embryonic stem cells; assay: CellTiter-Glo luminescent cell viability screen, H9; conditions: pluripotent stem cells
Description: (§3) 5,000 CSES2 cells were plated in 50 μl per well of mTeSR1 medium into black 384-well clear-bottom plates (Falcon BD) pre-coated with Matrigel™ using WellMate cell dispenser (Matrix, Hudson, N.H.). 24 hours after plating, medium was replaced with 25 μl of fresh medium and 25 μl of 40 μM compound medium solutions in 1% DMSO from the intermediate compound dilution plates. The plates were incubated at 37° C., in a 5% CO2 atmosphere, for the entire duration of the screen, apart from the time required for liquid handling. Cell viability was determined 24 hours after compound treatment using CellTiter-Glo® luminescent cell viability assay kits. 50 μl of CellTiter-Glo® reagent was added to each well of the assay plates and fully mixed. After incubation at room temperature for 15 minutes, 25 μl of liquid was transferred from each well into a white opaque-bottom 384-well plate (PerkinElmer), and luminescence was measured using an EnVision® plate reader (PerkinElmer). 16 neutral control wells (0.5% DMSO) and 8 positive control wells (5 μM amsacrine hydrochloride were used to normalize the compound effect. All liquid transfer steps were handled with a Biomek® FXP Laboratory Automation Workstation (Beckman Coulter, Fullerton, Calif.) and Muitidrop Combi liquid dispenser (Thermo Fisher, Waltham, Mass.). An Assay Analyzer (Genedata, Basel, Switzerland) was used for data pattern correction and calculation. The Spotfire software (Spotfire, Somerville, Mass.) was used for data illustration.
The compounds identified as hits from the primary screen were retested at a concentration of 20 μM against three pluripotent stem cell lines (CSES2, H9 and CSES2-SO2/3) for confirmation screens.
(§4) The raw intensity data for each well were background-corrected by subtraction of the median intensities across all positive control wells on the same plate, and used to calculate the inhibitory effect of each compound per cell line. A Genedata Assay Analyzer and Condoseo were used for data pattern correction, calculation and IC50 curve fitting. A Z′ factor was determined for each plate.

[3] = tested on: HeLa cells; assay: CellTiter-Glo counter-screen, HeLa; conditions: Homo sapiens, cancer cells
Description: (§5) The cervical carcinoma cell line HeLa, teratocarcinoma cell line NTERA-2, and immortalized BJ fibroblast cell line, were cultured in DMEM supplemented with 10% FBS, penicillin (50 U/ml) and streptomycin (50 μg/ml).
as §1, §2

[4] = CellTiter-Glo counter-screen, hepatocytes; conditions: human, human embryonic stem cell-derived hepatocytes (Cellartis), read-out: Inhibition (%) ES-derived hepatocytes
Description: Human embryonic stem cell-derived hepatocytes were obtained from Cellartis (Goteborg, Sweden), and handled according to the manufacturer's instructions;
as §1, §2

[5] = tested on: ES-derived mesenchymal stem cells; assay: CellTiter-Glo counter-screen, mesenchymal stem cells; conditions: Homo sapiens, at 20 μM (table title)
[6] = tested on: BJ-iPS28 induced pluripotent stem cells; assay: CellTiter-Glo luminescent cell viability screen, BJ-iPS28; conditions: Homo sapiens; for EC50: 24 h
Description: as §3
as §1, with “BJ-iPS28 cell line and the BJ fibroblasts from which it was derived were screened at 6 concentrations ranging from 50 μM to 200 nM with 1:3 serial dilution steps.” left out
as §4
The effect of the selected compounds on human iPS cells was then determined. […]

[7] = tested on: Huh7 cells; assay: CellTiter-Glo counter-screen, Huh7; conditions: Homo sapiens, Huh-7, cancer cells
Description: The hepatocarcinoma cell line Huh-7 was cultured in a DMEM/F12 (1:1) medium, supplemented with 10% FBS, penicillin (50 U/ml) and streptomycin (50 μg/ml).
as §1, §2

[8] = tested on: iPS-derived cardiomyocytes; assay: CellTiter-Glo counter-screen, cardiomyocytes; conditions: Homo sapiens, Cardiomyocyte
Description: Human induced pluripotent stem cell-derived cardiomyocytes were obtained from Cellular Dynamics International (Madison, Wis.), and handled according to the manufacturer's instructions;
as §1, §2

[9] = tested on: BJ-fibroblasts; assay: CellTiter-Glo counter-screen, BJ-fibroblasts; conditions: Homo sapiens; for EC50: 24 hours, differentiated cells
Description: as §5, §1, §2
In addition, the identified compounds were screened at 6 concentrations using the BJ-fibroblasts from which the iPS line BJ-iPS28 had been derived, and reliable EC50 values were thereby calculated for both the iPS cells and for their somatic cells of origin.

SMILES | inhibition at 20 µM [1] | inhibition at 20 µM [2] | inhibition at 20 µM [3] | inhibition at 20 µM [4] | inhibition at 12.5 µM [5] | EC50 [6] | inhibition at 20 µM ([6]; at 20 μM, pluripotent stem cells) | inhibition at 20 µM [7] | inhibition at 20 µM [8] | EC50 [9] | inhibition at 20 µM [9]
O=C(NN(C(=O)c1ccccc1)c1ccccc1)c1ccc(Cl)cc1 [PluriSIn #14] | 0% | 79.4% | -2.3% | -4.1% | -1.5% | 3.48 µM | 81.7% | 11.5% | 3.9% | > 50 µM | -18.6%
C(=N\C1CCC(CC2CCCCC2)CC1)/OC1CCOC1 (stereo not drawn) [PluriSIn #15] | 9.9% | 79.5% | 17.8% | 18.8% | 12% | 3.94 µM | – | 22.2% | 3.8% | > 50 µM | -6.1%
